Reference: article PMC7558282, “The Anticancer Activity for the Bumetanide-Based Analogs via Targeting the Tumor-Associated Membrane-Bound Human Carbonic Anhydrase-IX Enzyme” (Pharmaceuticals, 2020)

Experiments:
HEK-293 cells = test: MTT assay, non-tumorigenic HEK-293; assay type: cell-based; conditions: HEK293, normal human embryonic kidney cells
Description: Such differential activity patterns could be explained as off-target activity mediated by the latter compounds being related to a specific cancer cell line.
Figure 3 Antiproliferative activity of compound 9c in tumorigenic A-498 cells and non-tumorigenic HEK-293 cells. The experiment was performed in triplicate and significance was represented as mean ± S.D. ** = p < 0.01; *** = p < 0.001 between indicated groups.
The colorimetric MTT Cell Proliferation® Assay Kit (Cat. №. 10009365; Cayman Chemical^TM, Ann Arbor, MI, USA) has been utilized to assess the cytotoxic impact of the investigated compounds on solid cancer cell lines. […] Color intensity within each well was measured spectrophotometrically using the ROBONIK-P2000® ELISA microplate reader (Bio-Tek^TM, Winooski, VT, USA) at 450 nm while subtracting the background absorbance of multi well plates at 690 nm. The experiment was conducted in triplicates and IC50 values were estimated through linear regression between the logarithm-transformed compound concentrations and corresponding % cell viability = (mean absorbance in test wells/mean absorbance in control wells) ∗ 100, having the response variable slope (four parameters) for all samples.

A-498 cells = test: cell cycle analysis (PI, flow cytometry) in A-498; assay type: cell-based, human; conditions: 6 µM, 48 h
Description: The efficient antiproliferative activity of compound 9c on the kidney carcinoma A-498 cell line (Table 2) prompted a further investigation of its mechanistic growth inhibitory action. Thus, the impact of bumetanide analog 9c at 6 µM for 48 h on cell cycle distribution and induction of apoptosis in A-498 cells was next explored. […] Analysis of apoptosis was performed to determine the mode of cell death induced by 9c in A-498 cells. Compound 9c induced both early and late apoptosis in A-498 cells at 6 µM when compared to the untreated control cells (p < 0.01 and p < 0.001, respectively) (Figure 5A). […]
Figure 4 (A) Effect of compound 9c on the cell cycle and apoptosis in kidney carcinoma cell line A-498. […] Cells were then fixed, stained with propidium iodide (PI), and analyzed by flow cytometry. […] (B) Quantitative analysis of 4N (G2/M), 2N (G0G1), > 2N (S), and < 2N (sub-G1). DNA content was determined with CellQuest software. […]
A-498 Cells were seeded at a density of 1 × 10^5 cells/well in 24-well plates and treated with compound 9c (6 µM) for 48 h. […] The DNA content of cells (10,000 cells/experimental group) was analyzed by flow cytometer at 488 nm using a FACSCalibur flow cytometer (BD Biosciences, San Jose, CA, USA) and all data were recorded and analyzed using the CellQuest Software (Becton-Dickinson Biosciences, San Jose, CA, USA). […]

hCA-II = hCA-II (Homo sapiens, UniProt P00918); test: colorimetric CA-inhibition assay based on CA-esterase activity, hCA-II; conditions: hCA-II IC50, three replicate experiments; N/D = non-detected IC50 within the range of the tested concentrations
Description: (§1) Based on the kit manufacturer’s protocol, the candidate inhibitors were dissolved in DMSO at 10 × highest final test concentration and specific aliquots of such working dilutions were incubated with the target hCA isozyme for 10 min at room temperature prior to permit the formation of the enzyme-inhibitor complex. Triplicate experiments were performed for each candidate inhibitor concentration. Parallel wells of solvent and enzyme controls were prepared to test the solvent impact upon the activity of the target enzyme. […] Following incubation, the CA-substrate was added and changes in absorbance (at 405 nm) were monitored for 60 min at room temperature within the kinetic mode. The negative enzyme control wells (without added compounds) were arbitrarily set as 100% enzyme activity. […] Absorbance readings from background wells were subtracted from the compound assay wells in order to account for background hydrolysis activity caused by the buffer solution [44, 45].

hCA-IX = hCA-IX (Homo sapiens, UniProt Q16790); test: colorimetric CA-inhibition assay based on CA-esterase activity, hCA-IX
Description: as §1

For `CCCCNc1cc(-c2n[nH]c(=S)n2-c2ccc(Br)cc2)cc(S(N)(=O)=O)c1Oc1ccccc1` [Compound 9c], the IC50 (HEK-293 cells) was over 50 µM, the “cells in the sub-G1 phase” value (A-498 cells; control 1.3%) was 25.5% and the “cell population at the G2/M stage” value (A-498 cells; untreated control 10.8%) was 48.6%. For the same molecule, the IC50 (hCA-II) was 0.32 µM, the IC50 (hCA-IX; hCA-IX IC50, three replicate experiments) was 0.00442 µM and the “Selectivity Ratio II/IX” value (hCA-IX; ratio of IC50 values for isozyme CA-II relative to CA-IX) was 72.4.
